Results as given in patent US20010039246A1, “Composition and method for early bloom thinning of fruit trees and controlling cracking of fruits” (priority 2000, published 2001).
Read-outs that look alike come from different tables or passages of the source.

Columns and labels:
[1] = tested on: ‘Feng Huang’ peaches, ‘Delicious’ apples, and ‘Bing’ cherries; experiment: Lipids and surfactants for bloom thinning, all cultivars of Example 4; format: in vivo; details: for damage to leaf buds: surfactant alone at 0.6% or 1%; for thinning effect: surfactant alone at the application rate (0.2%, 0.6%, 1%), sprayed at 5% full bloom
Description: Fruit trees of ‘Feng Huang’ peaches, ‘Delicious’ apples, and ‘Bing’ cherries all were sprayed at 5% full bloom. Each treatment (plot) consisted of 4 trees, which received standard commercial management both before and after oil application.

‘Delicious’ apple = experiment: Lipids and surfactants for bloom thinning, fruit set and leaf bud damage (Example 4); format: in vivo; details: applied at 5% full bloom
‘Bing’ cherry trees = experiment: as above; format: in vivo; details: sprayed at 5% full bloom
Description: (§1) […] Each treatment (plot) consisted of 4 trees, which received standard commercial management both before and after oil application.

‘Feng Huang’ peach = experiment: as above; format: in vivo; details: applied at 5% full bloom
Description: as §1

‘Gala’ apple trees = experiment: Thinning and phytotoxicity of lipid, copper and their mixture (Example 5); format: in vivo; details: for Russet / Leaf damage / Thinning: ‘Gala’ apples, aqueous cupric sulfate, sprayed at 5% FB; for Russet: fruit russet at harvest
Method: Emulsion was prepared with glyceride type of lipids as in Example 2 and diluted to 2% active ingredients. Cupric sulfate was added to the diluted emulsion to give mixtures containing 0, 50, 100, and 150 g metallic copper per 100 L, respectively. Aqueous solutions containing 0, 50, 100, and 150 g metallic copper per 100 L were also prepared seperately. Emulsion and copper mixtures or cupric sulfate solutions were sprayed on 12 year-old ‘Gala’ apple trees at 5% FB. Each treatment consisted of 4 trees (replications) in a row (oriented from south to north) and 2 shoots (one from the east and another from the west side of the canopy) were selected from each of the 4 trees for evaluation. Fruit set was measured 2 months after FB and leaf damage were evaluated 1, 2, and 3 weeks after application. Fruit russet was assessed at harvest and return of bloom was evaluated the following season.

peach trees = details: cited from earlier work

Row | Molecule | damage to leaf buds [1] | thinning effect [1] | Fruit set (‘Delicious’ apple; surfactant solution 0.2%) [%] | leaf bud damage (‘Delicious’ apple; surfactant solution 0.2%) [%] | Fruit set (‘Delicious’ apple; surfactant solution 0.6%) [%] | leaf bud damage (‘Delicious’ apple; surfactant solution 0.6%) [%] | Fruit set (‘Delicious’ apple; surfactant solution 1.0%) [%] | leaf bud damage (‘Delicious’ apple; surfactant solution 1.0%) [%] | Fruit set (‘Bing’ cherry trees; surfactant solution 0.2%) [%] | leaf bud damage (‘Bing’ cherry trees; surfactant solution 0.2%) [%] | Fruit set (‘Bing’ cherry trees; surfactant solution 0.6%) [%] | leaf bud damage (‘Bing’ cherry trees; surfactant solution 0.6%) [%] | Fruit set (‘Bing’ cherry trees; surfactant solution 1.0%) [%] | leaf bud damage (‘Bing’ cherry trees; surfactant solution 1.0%) [%] | Fruit set (‘Feng Huang’ peach; surfactant solution 0.2%) [%] | leaf bud damage (‘Feng Huang’ peach; surfactant solution 0.2%) [%] | Fruit set (‘Feng Huang’ peach; surfactant solution 0.6%) [%] | leaf bud damage (‘Feng Huang’ peach; surfactant solution 0.6%) [%] | Fruit set (‘Feng Huang’ peach; surfactant solution 1.0%) [%] | leaf bud damage (‘Feng Huang’ peach; surfactant solution 1.0%) [%] | other results
1 | TRITON X-100 | caused some damage to leaf buds | not effective in thinning | 62 | 0 | 64 | 8 | 69 | 15 | 94 | 0 | 83 | 10 | 90 | 18 | 41 | 0 | 42 | 6 | 38 | 20 | –
2 | O=S(=O)([O-])[O-].[Cu+2] [Cupric sulfate] | – | – | – | – | – | – | – | – | – | – | – | – | – | – | – | – | – | – | – | – | thinning and phytotoxicity (‘Gala’ apple trees; ‘Gala’ apple, 50, 100, 150 g metallic copper per 100 L): both thinning and phytotoxicity in a concentration dependent manner; Russet (‘Gala’ apple trees; 50 g metallic copper/100 L): 0%; Russet (‘Gala’ apple trees; 100 g metallic copper/100 L): 35%; Russet (‘Gala’ apple trees; 150 g metallic copper/100 L): 64%; Leaf damage (‘Gala’ apple trees; 50 g metallic copper/100 L): 0%; Thinning (‘Gala’ apple trees; 50 g metallic copper/100 L): 87%; Leaf damage (‘Gala’ apple trees; 100 g metallic copper/100 L): 9%; Thinning (‘Gala’ apple trees; 100 g metallic copper/100 L): 64%; Leaf damage (‘Gala’ apple trees; 150 g metallic copper/100 L): 24%; Thinning (‘Gala’ apple trees; 150 g metallic copper/100 L): 43%
3 | alkaryl polyoxyethylene alcohols | – | – | – | – | – | – | – | – | – | – | – | – | – | – | – | – | – | – | – | – | thinning effect (peach trees; 2%): not effective thinners
4 | TWEEN 60 | caused some damage to leaf buds | not effective in thinning | 58 | 0 | 65 | 7 | 61 | 13 | 96 | 0 | 92 | 8 | 87 | 17 | 46 | 0 | 42 | 5 | 38 | 18 | –
5 | N,N-bis 2-[omega (hydroxypolyoxyethylene/polyoxypropylene)ethyl alkylamine] [Armothin] | – | – | – | – | – | – | – | – | – | – | – | – | – | – | – | – | – | – | – | – | thinning effect (peach trees; 1%): not effective thinners
